The structures appear in SMILES notation.

One compound from patent US8871812B2, “Therapeutic regimen comprising PEG-interferon, ribavirin and VX-950 for the treatment of hepatitis” (priority 2008, dated 2014) can be followed below.

A short description of series [1]: Oral bioavailability and plasma trough levels of VX-950. Format: in vivo. The source says: The trough level is the concentration that a drug drops down to in plasma just before next dose (i.e., the minimum concentration between doses). It is important, particularly in viral diseases, to maintain drug levels above a certain concentration to maintain appropriate inhibition of viral replication.
Accordingly, preferred pharmaceutical compositions of this invention are formulated for oral administration.

Another series concerns HCV genotype 1. Description: Phase 2 studies PROVE1 and PROVE2: sustained virologic response. The class given is in vivo, human. Conditions: treatment-naïve genotype 1 patients.

Consider `CCC[C@H](NC(=O)[C@@H]1[C@H]2CCC[C@H]2CN1C(=O)[C@@H](NC(=O)[C@@H](NC(=O)c1cnccn1)C1CCCCC1)C(C)(C)C)C(=O)C(=O)NC1CC1` [VX-950], for which the Plasma trough levels result in series [1] (750 mg every 8 hours) is recorded as “higher trough levels”. Further, the Oral bioavailability result in series [1] (in vivo, po) is on record as “orally bioavailable”. Also, in the series on HCV genotype 1 (24-week TVR-containing regimen versus 48-week peginterferon and ribavirin (p=0.01)), the “sustained virologic response rate, PROVE2” value was found to be 69%. The “sustained virologic response rate, PROVE1” value in the series with HCV genotype 1 (24-week TVR-containing regimen versus 48-week peginterferon and ribavirin (p=0.02)) is reported as 61%.
